From patent US10758534B2 (Vertex Pharmaceuticals Incorporated, priority 2014, dated 2020)

biological target: T1, F508del (Homo sapiens, UniProt P13569, DEL508-508); test: Protocol 1: membrane potential optical assay (FLIPR III, voltage sensing dye), identification of potentiator compounds; format: cell-based; conditions: Table 3, compounds of Table 1
T1 construct: expressed in transfected cells
Method in brief: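 Mouse NIH 3T3 fibroblasts stably expressing F508del, temperature-corrected at 27 °C for 24 h, pretreated with compound, then loaded with voltage-sensing redistribution dye. Forskolin was added in a single step with a chloride gradient (chloride-free gluconate bath; Bath Solution #1 HEPES pH 7.4). Membrane-potential fluorescence read on FLIPR III.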

T1 sequence (P13569 with tags, fused parts or gaps DEL508-508): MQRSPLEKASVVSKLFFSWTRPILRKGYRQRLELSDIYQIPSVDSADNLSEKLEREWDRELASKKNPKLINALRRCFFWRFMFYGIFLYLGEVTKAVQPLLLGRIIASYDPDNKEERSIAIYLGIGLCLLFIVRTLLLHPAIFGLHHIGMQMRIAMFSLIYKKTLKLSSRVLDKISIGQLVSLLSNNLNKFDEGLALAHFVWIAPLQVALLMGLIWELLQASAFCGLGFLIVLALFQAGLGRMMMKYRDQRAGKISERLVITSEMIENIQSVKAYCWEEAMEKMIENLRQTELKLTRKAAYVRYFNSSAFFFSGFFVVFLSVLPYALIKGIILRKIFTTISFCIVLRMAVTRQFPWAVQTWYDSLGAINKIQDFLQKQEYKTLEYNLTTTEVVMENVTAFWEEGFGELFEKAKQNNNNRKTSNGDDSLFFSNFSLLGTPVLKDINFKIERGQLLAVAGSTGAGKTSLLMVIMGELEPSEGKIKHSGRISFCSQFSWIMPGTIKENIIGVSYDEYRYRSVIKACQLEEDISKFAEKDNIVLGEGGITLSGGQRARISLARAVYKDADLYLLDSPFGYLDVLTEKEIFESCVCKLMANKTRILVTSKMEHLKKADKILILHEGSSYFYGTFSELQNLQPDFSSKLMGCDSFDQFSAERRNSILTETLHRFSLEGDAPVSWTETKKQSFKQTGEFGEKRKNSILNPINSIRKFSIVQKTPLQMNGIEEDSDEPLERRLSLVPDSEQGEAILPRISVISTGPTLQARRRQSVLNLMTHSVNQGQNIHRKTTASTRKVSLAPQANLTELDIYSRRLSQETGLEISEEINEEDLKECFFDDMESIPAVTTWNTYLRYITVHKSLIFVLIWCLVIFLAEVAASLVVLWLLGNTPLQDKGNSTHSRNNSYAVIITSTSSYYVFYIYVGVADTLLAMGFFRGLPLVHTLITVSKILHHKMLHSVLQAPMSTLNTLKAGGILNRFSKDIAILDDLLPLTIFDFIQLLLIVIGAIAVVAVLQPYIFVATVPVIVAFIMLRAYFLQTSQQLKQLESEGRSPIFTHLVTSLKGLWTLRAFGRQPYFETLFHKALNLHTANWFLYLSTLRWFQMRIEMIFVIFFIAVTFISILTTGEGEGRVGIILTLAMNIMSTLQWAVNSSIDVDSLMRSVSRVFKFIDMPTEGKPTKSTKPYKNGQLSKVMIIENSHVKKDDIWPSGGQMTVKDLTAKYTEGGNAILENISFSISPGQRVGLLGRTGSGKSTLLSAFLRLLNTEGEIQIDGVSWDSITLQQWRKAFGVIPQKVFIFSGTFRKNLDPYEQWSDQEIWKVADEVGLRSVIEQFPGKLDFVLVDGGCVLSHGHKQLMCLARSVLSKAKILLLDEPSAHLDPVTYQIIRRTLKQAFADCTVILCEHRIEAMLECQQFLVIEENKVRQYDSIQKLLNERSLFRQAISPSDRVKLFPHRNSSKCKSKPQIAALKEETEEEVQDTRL

Q: For CC(C)COc1cc(F)cc(-c2ccc(C(=O)NS(=O)(=O)c3ccn[nH]3)c(N3CCC[C@@H](c4ccccc4)C3)n2)c1 [Compound 912, 6-(3-fluoro-5-isobutoxy-phenyl)-2-[(3S)-3-phenyl-1-piperidyl]-N-(1H-pyrazol-5-ylsulfonyl)pyridine-3-carboxamide], which EC30 is on record?
A: +++ (“+++” means <3 uM)

Q: How did the EC30 turn out when C=C1CCN(c2nc(-c3cc(F)cc(OCC(C)C)c3)ccc2C(=O)NS(=O)(=O)c2cccc(N)n2)CC1 [Compound 1162, N-[(6-amino-2-pyridyl)sulfonyl]-6-(3-fluoro-5-isobutoxy-phenyl)-2-(4-methylene-1-piperidyl)pyridine-3-carboxamide] was run?
A: +++ (“+++” means <3 uM)

Q: With COc1ccc(-c2ccc(C(=O)NS(=O)(=O)c3cccc(N)n3)c(Oc3c(C)cc(C)cc3C)n2)c(F)c1 [Compound 956, N-[(6-amino-2-pyridyl)sulfonyl]-6-(2-fluoro-4-methoxy-phenyl)-2-(2,4,6-trimethylphenoxy)pyridine-3-carboxamide] as the compound, how does the EC30 read?
A: +++ (“+++” means <3 uM)

Q: How did the EC30 turn out when CC1CN(c2nc(C(C)(C)C)c(C#N)cc2C(=O)NS(=O)(=O)c2cccc(N)n2)C(C)(C)C1 (stereo not drawn) [Compound 1419, N-[(6-amino-2-pyridyl)sulfonyl]-6-tert-butyl-5-cyano-2-(2,2,4-trimethylpyrrolidin-1-yl)pyridine-3-carboxamide] was run?
A: +++ (“+++” means <3 uM)

Q: Which EC30 does the source give for CC(C)COc1cc(F)cc(-c2ccc(C(=O)NS(=O)(=O)c3cccnc3N)c(N3C[C@@H](C)CC3(C)C)n2)c1 [Compound 1593, N-[(2-amino-3-pyridyl)sulfonyl]-6-(3-fluoro-5-isobutoxy-phenyl)-2-[(4S)-2,2,4-trimethylpyrrolidin-1-yl]pyridine-3-carboxamide] here?
A: +++ (“+++” means <3 uM)

Q: Which EC30 does the source give for CC1CN(c2ncccc2C(=O)NS(=O)(=O)c2cccc(Nc3ccccc3Cl)n2)C(C)(C)C1 (stereo not drawn) [Compound 1872, N—[[6-(2-chloroanilino)-2-pyridyl]sulfonyl]-2-(2,2,4-trimethylpyrrolidin-1-yl)pyridine-3-carboxamide] here?
A: +++ (“+++” means <3 uM)

Q: For Cc1cc(C)c(Oc2nc(N3CCCC3C)c(C)cc2C(=O)NS(=O)(=O)c2cccc(N)n2)c(C)c1 (stereo not drawn) [Compound 1516, N-[(6-amino-2-pyridyl)sulfonyl]-5-methyl-6-(2-methylpyrrolidin-1-yl)-2-(2,4,6-trimethylphenoxy)pyridine-3-carboxamide], which EC30 is on record?
A: +++ (“+++” means <3 uM)

Q: How did the EC30 turn out when CCC(C)Oc1ccn(-c2ccc(C(=O)NS(=O)(=O)c3cccnc3N)c(N3C[C@@H](C)CC3(C)C)n2)n1 (stereo partly drawn) [Compound 1970, N-[(2-amino-3-pyridyl)sulfonyl]-6-(3-sec-butoxypyrazol-1-yl)-2-[(4S)-2,2,4-trimethylpyrrolidin-1-yl]pyridine-3-carboxamide] was run?
A: +++ (“+++” means <3 uM)

Q: For Cc1cc(C)c(C(C)N2Cc3ccccc3C2C(=O)NS(=O)(=O)c2cccc(N)n2)c(C)c1 (stereo not drawn) [Compound 1186, N-[(6-amino-2-pyridyl)sulfonyl]-2-[1-(2,4,6-trimethylphenyl)ethyl]isoindoline-1-carboxamide], which EC30 is on record?
A: +++ (“+++” means <3 uM)

Q: With CCOc1cccc2c1CN(Cc1c(C)cccc1F)C2(C)C(=O)NS(=O)(=O)c1cccc(N)n1 (stereo not drawn) [Compound 1392, N-[(6-amino-2-pyridyl)sulfonyl]-4-ethoxy-2-[(2-fluoro-6-methyl-phenyl)methyl]-1-methyl-isoindoline-1-carboxamide] as the compound, how does the EC30 read?
A: +++ (“+++” means <3 uM)

Q: For CCOc1cccc2c1CN(Cc1c(C)cc(C)cc1C)C2(C)C(=O)NS(=O)(=O)c1ccc(Cl)c(N)c1 (stereo not drawn) [Compound 1587, N-(3-amino-4-chloro-phenyl)sulfonyl-4-ethoxy-1-methyl-2-[(2,4,6-trimethylphenyl)methyl]isoindoline-1-carboxamide], which EC30 is on record?
A: +++ (“+++” means <3 uM)

Q: COc1ncc(-c2ccc(C(=O)NS(=O)(=O)c3nccnc3N)c(N3CCC(C)CC3)n2)cc1C [Compound 1191, N-(3-aminopyrazin-2-yl)sulfonyl-6-(6-methoxy-5-methyl-3-pyridyl)-2-(4-methyl-1-piperidyl)pyridine-3-carboxamide] was tested. Which EC30 did it give?
A: ++ (“++” means between 3 uM and 10 uM)

Q: With CC(C)Oc1ccc(-c2ccc(C(=O)NS(=O)(=O)c3cccc(N)n3)c(NCc3ccccc3)n2)cn1 [Compound 1026, N-[(6-amino-2-pyridyl)sulfonyl]-2-(benzylamino)-6-(6-isopropoxy-3-pyridyl)pyridine-3-carboxamide] as the compound, how does the EC30 read?
A: ++ (“++” means between 3 uM and 10 uM)

Q: Which EC30 does the source give for Cc1cc(OCC(C)(C)C)ncc1-c1ccc(C(=O)NS(=O)(=O)c2cccc(N)n2)c(N2CC(C)CC2(C)C)n1 (stereo not drawn) [Compound 1160, N-[(6-amino-2-pyridyl)sulfonyl]-6-[6-(2,2-dimethylpropoxy)-4-methyl-3-pyridyl]-2-(2,2,4-trimethylpyrrolidin-1-yl)pyridine-3-carboxamide] here?
A: +++ (“+++” means <3 uM)

Q: Which EC30 does the source give for CC(=O)NC1CCCN(S(=O)(=O)NC(=O)c2ccc(-c3cc(F)cc(OCC(C)C)c3)nc2N2CC(C)CC2(C)C)C1 (stereo not drawn) [Compound 1586, N-[(3-acetamido-1-piperidyl)sulfonyl]-6-(3-fluoro-5-isobutoxy-phenyl)-2-(2,2,4-trimethylpyrrolidin-1-yl)pyridine-3-carboxamide] here?
A: +++ (“+++” means <3 uM)

Q: With Cc1cc(C)c(Oc2ncc(-c3ccccc3C)cc2C(=O)NS(=O)(=O)c2cccc(N)n2)c(C)c1 [Compound 817, N-[(6-amino-2-pyridyl)sulfonyl]-5-(o-tolyl)-2-(2,4,6-trimethylphenoxy)pyridine-3-carboxamide] as the compound, how does the EC30 read?
A: +++ (“+++” means <3 uM)

Q: For CC(C)Oc1ccc(-c2ccc(C(=O)NS(=O)(=O)c3cccc(N)n3)c(N3[C@H](C)CC[C@H]3C)n2)cn1 [Compound 1198, N-[(6-amino-2-pyridyl)sulfonyl]-2-[(2R,5R)-2,5-dimethylpyrrolidin-1-yl]-6-(6-isopropoxy-3-pyridyl)pyridine-3-carboxamide], which EC30 is on record?
A: +++ (“+++” means <3 uM)

Q: With CC(C)COc1cc(-c2ccc(C(=O)NS(=O)(=O)c3cccc(N)n3)c(N3CCC(C)CC3)n2)ccc1Cl [Compound 1266, N-[(6-amino-2-pyridyl)sulfonyl]-6-(4-chloro-3-isobutoxy-phenyl)-2-(4-methyl-1-piperidyl)pyridine-3-carboxamide] as the compound, how does the EC30 read?
A: +++ (“+++” means <3 uM)

Q: How did the EC30 turn out when CC(C)COc1cc(F)cc(-c2ccc(C(=O)NS(=O)(=O)c3cccc(N)n3)c(OC3CC4CCC3C4)n2)c1 (stereo not drawn) [Compound 1227, N-[(6-amino-2-pyridyl)sulfonyl]-6-(3-fluoro-5-isobutoxy-phenyl)-2-norbornan-2-yloxy-pyridine-3-carboxamide] was run?
A: +++ (“+++” means <3 uM)

Q: How did the EC30 turn out when C[C@@H]1CN(c2nc(C3CC4CCC3C4)ccc2C(=O)NS(=O)(=O)c2cccc(N)n2)C(C)(C)C1 (stereo partly drawn) [Compound 1378, NV [(6-amino-2-pyridyl)sulfonyl]-6-norbornan-2-yl-2-[(4S)-2,2,4-trimethylpyrrolidin-1-yl]pyridine-3-carboxamide] was run?
A: +++ (“+++” means <3 uM)

Q: For COc1cc(C)c(-c2ccc(C(=O)NS(=O)(=O)c3cccc(N)n3)c(N3CC(C)CC3(C)C)n2)cc1C (stereo not drawn) [Compound 1259, N-[(6-amino-2-pyridyl)sulfonyl]-6-(4-methoxy-2,5-dimethyl-phenyl)-2-(2,2,4-trimethylpyrrolidin-1-yl)pyridine-3-carboxamide], which EC30 is on record?
A: +++ (“+++” means <3 uM)
